# Experimental data taken from article PMC5768343, “A natural inhibitor of kidney-type glutaminase: a withanolide from Physalis pubescens with potent anti-tumor activity” (Oncotarget, 2017).
# How the values were obtained:
# HCC827-ER = experiment: EdU and DAPI double staining, combination with erlotinib; format: cell-based, human; conditions: 0.5 μM with erlotinib 1, 2, 4, 8 μM
# Experimental: The logarithmic growth phase cells were seeded in 24-well plates at 2 × 10^4 ∼ 5 × 10^5 cells per well. After 4–6 h, the medium was removed, the medium containing no or different concentrations of compound was replaced, and 50 μM of EdU was added. 2 h later, the medium was removed, cells washed by PBS. 200 μL of cell fixative (i.e., PBS containing 4% paraformaldehyde) was added and incubated at room temperature for 30 minutes. The solution was discarded and 200 μL of 2 mg/mL glycine was added to each well. After 5 minutes of incubation, the glycine solution was discarded. Each well washed with 200 μL of PBS, rinse for 5 minutes, and PBS was removed. Apollo staining was added to each well with 200 μL of 1 X Apollo® staining solution. After incubation for 30 minutes at room temperature and decolorization, the reaction solution was discarded. Similarly, 200 μL of 1 × Hoechst 33342 solution was added to each well to dye the total DNA. After 30 minutes of incubation at room temperature and the reaction solution was discarded, and then the images were captured and analyzed by fluorescence microscopy.
# SW1990 cells [1] = experiment: ROS quantification (DCFDA assay); format: cell-based, human; conditions: 2.5 or 5 μM, 24 h
# Experimental: DCFDA assay was performed 24 h after interfered with difference concentration of physapubescin K or DMSO. Cells were incubated with 5 μM 2′,7′-dichlorodihydrofluorescein diacetate (DCFDA, KeyGen, Nanjing, China A124) for 30 min. Cells were washed twice with PBS to remove excess DCFDA, and the labeled cells were then collected in PBS. The fluorescent of 2′,7′-dichloro-fluorescein (DCF) was proportionate to ROS generation and was measured by microplate reader.
# SW1990 cells [2] = experiment: Flow cytometric analysis for apoptosis (Annexin V/PI); format: cell-based, human; conditions: SW1990, 24 h
# Experimental: SW1990 cells were cultured in six-well plates and treated with different concentrations of physapubescin K for 24 h. Then the cells were harvested, washed twice with ice-cold PBS, and mixed in 100 μL of 1× binding buffer (10 mM HEPES/ NaOH, pH 7.4, 140 mM NaCl, 2.5 mM CaCl2). After incubating with Annexin-V and PI staining liquid (Nanjing KeyGen Biotech. Inc.) for 15 min at room temperature, the cells were examined by flow cytometry (BD Biosciences, FACSCalibur).
# [3] = system: glutamine metabolism in T47D cells; experiment: Intracellular metabolite levels, T47D; format: cell-based, human; conditions: 2.5 or 5 μM, 4 hours
# Experimental: Blocking glutamine metabolism can inhibit the growth and proliferation of glutamine-dependent cells, mainly because of blocking the production and utilization of glutamine metabolites. The effects of different concentrations of physapubescin K on the intracellular glutamine and its downstream metabolites were examined. […] And the same effect could also be seen in Hcc827-ER cells (Figure 7C).
# NADPH/NADP^+ ratio was determined by using NADP^+/NADPH Quantification Colorimetric Kit (BioVision, #K347-100). The abundance of intracellular glutamine (KeyGen, Nanjing, China A124), glutamate (KeyGen, Nanjing, China A074), (BioVision, #K778), aspartate (BioVision, #K552), oxaloacetate (BioVision, #K659) and malate (BioVision, #K637) was determined by using quantification kits, according the manufacturer’s instruction. Briefly, 5 × 10^6 cells (10-cm dishes) were collected during log-phase growth by cell scraper, homogenized in 0.2 mL of provided buffers (on ice), and centrifuged at 4°C for 10 min at 13,000 g. Supernatants were deproteinized using 10 K Ultrafiltration tube (Millipore, USA), analyzed and compared to standard curves. The signals obtained were normalized to the protein concentration calculated upon processing a parallel 10-cm dish.
# SW1990 cells [4] = experiment: Combination with benserazide, CCK8 viability and CompuSyn combination index; format: cell-based, human; conditions: combined use with benserazide, ratio less than 1:50, CompuSyn
# From the text: Tumor cells are speculated to maintain growth and proliferation through a variety of energy metabolism pathways. Therefore, targeting at a single energy metabolism material might not be an effective method for cancer therapy. It has been determined that growing cancer cells were strongly dependent on energy sources such as glucose and glutamine. We supposed that the blocking of both glucose and glutamine metabolism pathways could display a synergistic tumor inhibition. Hexokinase 2 (HK2) was the crucial enzyme controlling the first step of glycolysis, and systemic deletion of HK2 can impair the tumor progression in mouse models. Nowadays, Metformin (Met), 2-Deoxyglucose (2-DG) and 3-Bromopyruvate (3-BrPA) are most commonly reported HK2 inhibitors. […] The combined inhibitory effects of physapubescin K and benserazide on the growth of SW1990 cells were evaluated. […]
# Figure 8 Synergy of physapubescin K (PSBK) in combination treatments (A) Cells were cultured for 1 day with or without the indicated doses of PSBK and benserazide, and cell viability was evaluated by CCK8 assay. (B) At the indicated concentration ratio of PSBK: benserazide combinations at different effect levels, ED50, ED75 and ED95 were calculated using the CompuSyn software. […] The proportion of cells in proliferation is counted by manual counting (D).
# [5] = system: erlotinib-resistant human non-small cell lung cancer cells (HCC827-ER); experiment: CCK8 cytotoxicity / proliferation assay, HCC827-ER; format: cell-based
# Experimental: (§1) The experiment was performed in triplicate.
# [6] = system: human normal liver cell LO2; experiment: CCK8 cytotoxicity / proliferation assay, LO2; format: cell-based; conditions: CCK8, 48 h
# Experimental: as §1
compound,measurement,setting,value
CO[C@H]1O[C@@H]([C@@H](C)[C@H]2C[C@H](OC(C)=O)[C@H]3[C@@H]4C[C@H]5O[C@]56[C@@H](O)C=CC(=O)[C@]6(C)[C@H]4CC[C@@]32C)C[C@]2(C)O[C@]12C [physapubescin K],sensitivity of HCC827-ER to erlotinib,HCC827-ER,significantly increase the sensitivity
same,intracellular reactive oxygen species (ROS) levels,SW1990 cells [1],significantly increase
same,apoptosis,SW1990 cells [2],induce apoptosis
same,effects on glutamine metabolism,[3],moderate effects
same,CI value,SW1990 cells [4],less than 0.8
same,sensitivity of cell growth to treatment,"[5]; HCC827-ER, 1 μM",sensitive
same,IC50,"[5]; Homo sapiens, HCC827ER, CCK8, 48 h",720 ± 220 nM
same,IC50,[6],11.7 ± 0.32 µM
